From PubChem BioAssay (NCI)
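Growth conditions: 96-well plates. Treatment: test compound, 48 hours, 5 concentrations. Analysis: linear interpolation between bracketing concentrations; unreached endpoints set to highest concentration. The concentration for 50% growth inhibition is given as GI50. TGI marks complete inhibition of growth.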

Legend:
Assay in all cases: growth of human tumour cells (NCI), 48 h
ACHN renal = test system: ACHN renal
HCC-2998 colon = test system: HCC-2998 colon
HCT-15 colon = test system: HCT-15 colon
HL-60(TB) leukemia = test system: HL-60(TB) leukemia
KM12 colon = test system: KM12 colon
NCI-H226 lung = test system: NCI-H226 lung
NCI-H522 lung = test system: NCI-H522 lung
RXF 393 renal = test system: RXF 393 renal
SF-539 CNS = test system: SF-539 CNS
SK-MEL-5 melanoma = test system: SK-MEL-5 melanoma
SK-OV-3 ovarian = test system: SK-OV-3 ovarian
SW-620 colon = test system: SW-620 colon
UACC-257 melanoma = test system: UACC-257 melanoma
M14 melanoma = test system: M14 melanoma
OVCAR-4 ovarian = test system: OVCAR-4 ovarian

| SMILES | TGI (ACHN renal) | TGI (HCC-2998 colon) | TGI (HCT-15 colon) | TGI (HL-60(TB) leukemia) | TGI (KM12 colon) | TGI (NCI-H226 lung) | TGI (NCI-H522 lung) | TGI (RXF 393 renal) | TGI (SF-539 CNS) | TGI (SK-MEL-5 melanoma) | TGI (SK-OV-3 ovarian) | TGI (SW-620 colon) | TGI (UACC-257 melanoma) | TGI (M14 melanoma) | TGI (OVCAR-4 ovarian) | GI50 (NCI-H226 lung) | GI50 (RXF 393 renal) | GI50 (SK-MEL-5 melanoma) |
| --- | --- | --- | --- | --- | --- | --- | --- | --- | --- | --- | --- | --- | --- | --- | --- | --- | --- | --- |
| C/C=C1\CN2CCc3c([nH]c4ccccc34)C2C=C1CCO (stereo unspecified) | > 340 µM | > 340 µM | > 340 µM | > 340 µM | > 340 µM | > 340 µM | > 340 µM | > 340 µM | > 340 µM | > 340 µM | > 340 µM | > 340 µM | > 340 µM | – | – | – | – | – |
| C=C(C(=C)N1N=NC2C3CCC(C3)C21)N1N=NC2C3CCC(C3)C21 (stereo unspecified) | > 100 µM | > 100 µM | – | 54.6 µM | > 100 µM | – | > 100 µM | > 100 µM | > 100 µM | > 100 µM | – | > 100 µM | > 100 µM | > 100 µM | > 100 µM | – | – | – |
| CCOC(=O)c1cnc2sc3ccc4ccccc4c3n2c1=O | > 100 µM | > 100 µM | > 100 µM | 52 µM | > 100 µM | > 100 µM | – | > 100 µM | > 100 µM | > 100 µM | > 100 µM | > 100 µM | > 100 µM | > 100 µM | > 100 µM | – | – | – |
| C#CCN(N=O)C(=O)NCCCCC(NC(C)=O)C(=O)NCc1ccccc1 (stereo unspecified) | > 100 µM | > 100 µM | > 100 µM | – | > 100 µM | > 100 µM | > 100 µM | > 100 µM | > 100 µM | > 100 µM | > 100 µM | > 100 µM | > 100 µM | > 100 µM | > 100 µM | – | – | – |
| COC(=O)C(Br)C1CCc2ccccc21 (stereo unspecified) | > 100 µM | > 100 µM | > 100 µM | > 100 µM | – | > 100 µM | – | – | – | > 100 µM | > 100 µM | > 100 µM | > 100 µM | > 100 µM | > 100 µM | – | – | – |
| CCCCCCCCCC(=O)OCC1OC(n2cc(F)c(=O)[nH]c2=O)C(NC(=O)OCc2ccccc2)C(OC(=O)CCCCCCCCC)C1O (stereo unspecified) | > 100 µM | > 100 µM | > 100 µM | 55.8 µM | > 100 µM | – | 72.2 µM | 44 µM | > 100 µM | 41.5 µM | > 100 µM | > 100 µM | > 100 µM | > 100 µM | 40.6 µM | – | – | – |
| COc1ccc(NC(=O)C(C)Oc2ccc(OCC3CCCCC3)cc2)cc1 (stereo unspecified) | > 100 µM | > 100 µM | > 100 µM | > 100 µM | > 100 µM | > 100 µM | > 100 µM | > 100 µM | > 100 µM | > 100 µM | > 100 µM | – | > 100 µM | > 100 µM | > 100 µM | – | – | – |
| COc1ccc(/C=C2\CCC(CCN(C)C)(C3=CCCC3)C2=O)cc1Br (stereo unspecified) | 21.5 µM | 4.71 µM | 15.5 µM | 4.63 µM | 14.9 µM | 31.4 µM | 3.98 µM | 6.99 µM | 25.7 µM | 3.15 µM | – | 20.3 µM | 5.5 µM | 3.34 µM | 14.5 µM | – | – | – |
| O=c1cc(-c2ccco2)[nH]c2cc3c(cc12)OCO3 | > 100 µM | > 100 µM | > 100 µM | > 100 µM | – | > 100 µM | – | 92.8 µM | 75.5 µM | > 100 µM | – | > 100 µM | > 100 µM | – | > 100 µM | 24.4 µM | 24.9 µM | 13.4 µM |
| C=C1C(OC(=O)/C=C/c2ccccc2)CC(OC(C)=O)C2(C)C1CC1CC(OC(C)=O)C(C)=C(C(OC(C)=O)C2OC(C)=O)C1(C)C (stereo unspecified) | – | > 100 µM | > 100 µM | – | > 100 µM | > 100 µM | > 100 µM | – | > 100 µM | > 100 µM | > 100 µM | > 100 µM | – | > 100 µM | – | – | – | – |
| CN(C)c1snc2c1c(=O)n(C)c(=O)n2C | > 100 µM | > 100 µM | > 100 µM | > 100 µM | – | > 100 µM | > 100 µM | – | > 100 µM | > 100 µM | > 100 µM | > 100 µM | > 100 µM | – | > 100 µM | – | – | – |
| CCCCNC(=O)C1C2CCC(O2)C1C(=O)O (stereo unspecified) | 57.7 µM | 46.6 µM | 70.3 µM | – | > 100 µM | 35.3 µM | 41.8 µM | 8.44 µM | 39.6 µM | 45.8 µM | 53.7 µM | 10.6 µM | 45.7 µM | 29.5 µM | > 100 µM | – | – | – |
| COc1ccc(/C(=C/n2ccnc2)C(O)c2ccc(OC)c(OC)c2)cc1OC (stereo unspecified) | – | – | > 100 µM | > 100 µM | > 100 µM | > 100 µM | – | > 100 µM | > 100 µM | – | > 100 µM | > 100 µM | > 100 µM | > 100 µM | > 100 µM | – | – | – |
| CCc1cc(CCC(=O)Nc2ccccc2[N+](=O)[O-])[nH]c(=S)n1 | > 100 µM | – | > 100 µM | > 100 µM | > 100 µM | > 100 µM | – | > 100 µM | > 100 µM | – | > 100 µM | > 100 µM | > 100 µM | > 100 µM | – | – | – | – |
| C=CCN1/C(=C2\SC(=S)N(c3ccc(C)cc3)C2=O)Sc2c1nc[nH]c2=O | > 100 µM | – | > 100 µM | > 100 µM | – | > 100 µM | > 100 µM | > 100 µM | > 100 µM | > 100 µM | > 100 µM | > 100 µM | > 100 µM | > 100 µM | > 100 µM | – | – | – |
